Experiments:
[1] = system: Mouse colon cancer, Colon26; test: Antitumor effect, Test Example 3: subcutaneously transplanted Colon26 in mice, single intravenous administration; type: in vivo, mouse (female CDF1 mice); settings: 200 mg/kg (as combretastatin A-4), single i.v.
Method: (§1) Mouse colon cancer, Colon26, maintained by serial subcutaneous subculture in mice was minced into about 1-mm square fragments, and the fragments were subcutaneously transplanted on the dorsal part of female CDF1 mice with a trocar. Seven days after tumor transplantation, the high-molecular weight conjugate of the present invention (compound 2 and compound 3) or a control drug (combretastatin A-4 phosphoric acid ester) synthesized by a method according to Non-Patent Document 1 was administered a single time intravenously to the mouse tail vein, at a dose respectively calculated on the basis of combretastatin A-4. The control is a group not given the drug. Compound 2, compound 3 and the control drug were all dissolved in a 5% glucose injection solution and used. After the administration, the major axis (L mm) and the minor axis (W mm) of the tumor were measured using a caliper, and the volume of tumor was calculated by the formula: (L×W^2)/2.

[2] = system: Mouse colon cancer, Colon26; test: Antitumor effect, Test Example 2: subcutaneously transplanted Colon26 in mice, single intravenous administration; type: in vivo, mouse (female CDF1 mice); settings: single i.v.
Method: as §1, with “2-mm” for “1-mm”, “1)” for “2 and compound 3)”, “A-4)” for “A-4 phosphoric acid ester) synthesized by a method according to Non-Patent Document 1”, “1 was” for “2, compound 3 and the control drug were all”, “used. Combretastatin A-4 was dissolved in dimethylsulfoxide and Cremophor EL (manufactured by Sigma-Aldrich Company), and was used after diluted with a 5% glucose injection solution at the time of use.” for “used.”

COc1ccc(/C=C\c2cc(OC)c(OC)c(OC)c2)cc1OP(=O)(O)O [Combretastatin A-4 phosphoric acid ester, combretastatin A-4 phosphoric acid ester]
relative tumor volume based on the tumor volume on the day of initiation of administration ([1]; day 0 after administration): 1.00
relative tumor volume based on the tumor volume on the day of initiation of administration ([1]; day 2 after administration): 1.57
relative tumor volume based on the tumor volume on the day of initiation of administration ([1]; day 4 after administration): 3.12
relative tumor volume based on the tumor volume on the day of initiation of administration ([1]; day 7 after administration): 9.33
relative tumor volume based on the tumor volume on the day of initiation of administration ([1]; day 9 after administration): 10.11

COc1ccc(/C=C\c2cc(OC)c(OC)c(OC)c2)cc1O [Combretastatin A-4, combretastatin A-4]
relative tumor volume based on the tumor volume on the day of initiation of administration ([2]; 200 mg/kg (as combretastatin A-4), day 0 after administration): 1.00
relative tumor volume based on the tumor volume on the day of initiation of administration ([2]; 200 mg/kg (as combretastatin A-4), day 2 after administration): 1.77
relative tumor volume based on the tumor volume on the day of initiation of administration ([2]; 200 mg/kg (as combretastatin A-4), day 4 after administration): 3.73
relative tumor volume based on the tumor volume on the day of initiation of administration ([2]; 200 mg/kg (as combretastatin A-4), day 7 after administration): 9.25
relative tumor volume based on the tumor volume on the day of initiation of administration ([2]; 200 mg/kg (as combretastatin A-4), day 8 after administration): 12.03
relative tumor volume based on the tumor volume on the day of initiation of administration ([2]; 400 mg/kg, day 0 after administration): 1.00
relative tumor volume based on the tumor volume on the day of initiation of administration ([2]; 400 mg/kg, day 2 after administration): 1.24
relative tumor volume based on the tumor volume on the day of initiation of administration ([2]; 400 mg/kg, day 4 after administration): 2.21
relative tumor volume based on the tumor volume on the day of initiation of administration ([2]; 400 mg/kg, day 7 after administration): 5.09
relative tumor volume based on the tumor volume on the day of initiation of administration ([2]; 400 mg/kg, day 8 after administration): 6.41

Reference: US20100004403A1, “High-Molecular Weight Conjugate of Combretastatins” (priority 2006, published 2010)
